Laboratory results reported in patent US11964971B2, “Methods and compositions for modulating splicing” (Skyhawk Therapeutics, Inc., priority 2019, dated 2024).

Assays:
SMN protein = SMN protein assay (MSD) in SMA patient fibroblasts (GM03813); assay type: cell-based, human
Outline: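 SMA patient fibroblasts GM03813 (7000 cells/well) treated 48 h with compounds from 2.5 μM to 0.6 nM. Lysate SMN protein quantified by MSD immunoassay against an SMN standard curve (1 to 19.5 μg/ml) on each plate, giving absolute amounts.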

[1] = system: MDR1-MDCK cell monolayers; details: dog, MDCK-MDR1, 120 min, 5 μM, pH 7.4
MDR1 = assay: in vitro; details: dog; for Papp A→B at 120 min, 5 μM: MDCK-MDR1, pH 7.4, MDCK-MDR1: Papp A-B (10^−6, cm/s); for Papp B→A at 120 min, 5 μM: MDCK-MDR1, pH 7.4, MDCK-MDR1: Papp B-A (10^−6, cm/s)
MDR1 (P-gp) = assay: MDCK-MDR1 permeability assay, blood-brain-barrier penetration potential; details: dog, MDCK-MDR1, pH 7.4, MDCK-MDR1 Efflux Ratio

Structure (SMILES) | EC50 (SMN protein) [nM] | MDCK-MDR1: % Recov A-B (%) [1] [%] | MDCK-MDR1: % Recov B-A (%) [1] [%] | Papp A→B at 120 min, 5 μM (MDR1) [×10⁻⁶ cm/s] | Papp B→A at 120 min, 5 μM (MDR1) [×10⁻⁶ cm/s] | efflux ratio at 120 min, 5 μM (MDR1 (P-gp))
CN(c1cnc(-c2ccc(-c3ccn(CF)c(=O)c3)cc2O)cn1)[C@@H]1CC2CC[C@H](N2)[C@@H]1F (single isomer, unassigned) [Compound 46E1] | 501 to 10000 | 74 | 78 | 1.69 | 37.9 | 22
Oc1cc(-c2cn[nH]c2)c(F)cc1-c1cnc(N(C2CC2)[C@H]2C[C@@H]3CCC(N3)[C@H]2F)cn1 (single isomer, unassigned) [Compound 41E2] | 101 to 500 | 54 | 72 | 6.09 | 34.4 | 6
COc1cc(-c2cc(O)c(-c3cnc(N(C4CC4)[C@@H]4CC5CC[C@H](N5)[C@@H]4F)cn3)cc2F)ccn1 (single isomer, unassigned) [Compound 36E1] | 501 to 10000 | 8 | 37 | 0.52 | 1.41 | 3
CN(c1cnc(-c2ccc(-c3cc[nH]c(=O)c3)cc2O)cn1)[C@H]1C[C@@H]2COCC(N2)[C@H]1F (single isomer, unassigned) [Compound 82E2] | 501 to 10000 | 45 | 54 | 0.27 | 32.2 | 120
COc1cc(-c2ccc(-c3cnc(N(C)[C@@H]4C[C@@]5(C)CCC[C@](C)(N5)[C@@H]4F)cn3)c(O)c2)cnn1 [Compound 24E1, 2-(5-(((1S,2R,3R,5R)-2-fluoro-1,5-dimethyl-9-azabicyclo[3.3.1]nonan-3-yl)(methyl)amino)pyrazin-2-yl)-5-(6-methoxypyridazin-4-yl)phenol] | 101 to 500 | 40 | 42 | 1.93 | 5.01 | 3
CN(c1cnc(-c2cc3oc(C(=O)N4CCC4)cc3cc2O)cn1)[C@H]1C[C@@H]2CCC(N2)[C@H]1F (single isomer, unassigned) [Compound 20E2] | 501 to 10000 | 75 | 79 | 0.94 | 41.9 | 45
CN(c1cnc(-c2ccc(-c3nnco3)cc2O)cn1)[C@H]1C[C@@H]2CCC(N2)[C@H]1F (single isomer, unassigned) [Compound 80E2] | 501 to 10000 | 73 | 80 | 8.23 | 30.8 | 4
COc1cc(-c2ccc(-c3cnc(N(C4CC4)[C@@H]4CC5CC[C@H](N5)[C@@H]4F)cn3)c(O)c2)cc(F)n1 (single isomer, unassigned) [Compound 52E1] | 501 to 10000 | 12 | 76 | 0.92 | 0.71 | 1
CN(c1cnc(-c2ccc(-c3cnn(C)c3)cc2O)cn1)[C@H]1C[C@@H]2COCC(N2)[C@H]1F (single isomer, unassigned) [Compound 73E2] | 501 to 10000 | 51 | 74 | 9.34 | 49.1 | 5
Oc1cc(-c2cn[nH]c2)ccc1-c1cnc(O[C@@H]2C[C@H]3CCC(N3)[C@@H]2F)cn1 (single isomer, unassigned) [Compound 1E2] | 501 to 10000 | 66 | 79 | 7.49 | 40.1 | 5
O=c1cc(-c2ccc(-c3cnc(N(C4CC4)[C@@H]4CC5CC[C@H](N5)[C@@H]4F)cn3)c(O)c2)ccn1CF (single isomer, unassigned) [Compound 54E1] | 501 to 10000 | 64 | 70 | 1.92 | 43.4 | 23
COc1cc(-c2cc(O)c(-c3cnc(N(C4CC4)[C@H]4C[C@@H]5CCC(N5)[C@H]4F)cn3)cc2F)ccn1 (single isomer, unassigned) [Compound 36E2] | 501 to 10000 | 10 | 40 | 0.59 | 1.3 | 2
CN(c1cnc(-c2cc3oc(C(=O)N4CCC4)cc3cc2O)cn1)[C@@H]1CC2CC[C@H](N2)[C@@H]1F (single isomer, unassigned) [Compound 20E1] | 501 to 10000 | 83 | 101 | 2.71 | 56.4 | 21
CNC(=O)/C=C/c1cc(O)c(-c2cnc(N(C)[C@@H]3C[C@@]4(C)CC[C@](C)(N4)[C@@H]3F)cn2)cc1F [Compound 61E1, (E)-3-(2-fluoro-4-(5-(((1S,2R,3R,5R)-2-fluoro-1,5-dimethyl-8-azabicyclo[3.2.1]octan-3-yl)(methyl)amino)pyrazin-2-yl)-5-hydroxyphenyl)-N-methylacrylamide] | 16 to 50 | 86 | 95 | 1.97 | 57.4 | 29
CNC(=O)c1cc(O)c(-c2cnc(N(C)[C@@H]3CC4CC[C@H](N4)[C@@H]3F)cn2)cc1F (single isomer, unassigned) [Compound 15E1] | 501 to 10000 | 86 | 97 | 2.74 | 64.4 | 24
COc1cc(-c2cc(O)c(-c3cnc(N(C)[C@@H]4C[C@@]5(C)CC[C@](C)(N5)[C@@H]4F)cn3)cc2F)cnn1 (single isomer, unassigned) [Compound 64E1] | 501 to 10000 | 71 | 80 | 3.97 | 49.8 | 13
CN(c1cnc(-c2cc(F)c(-c3ccn(CF)c(=O)c3)cc2O)cn1)[C@H]1C[C@@H]2CCC(N2)[C@H]1F (single isomer, unassigned) [Compound 32E2] | 16 to 50 | 86 | 88 | 2.58 | 51.2 | 20
CN(c1cnc(-c2ccc(C3=CCOC3)cc2O)cn1)[C@H]1C[C@@H]2CCC(N2)[C@H]1F (single isomer, unassigned) [Compound 84E2] | 16 to 50 | 28 | 66 | 4.64 | 14.9 | 3
